In the supplement of paper PMC10307832:

Experiments:
Experiment in all cases: relative viability (nuclei count vs DMSO), 5 days (fraction); higher = more cells survive
[1] = tested on: NCI-H1650
How it was run: (§1)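 The day after seeding in 1536-well plates, lung cancer cell lines were treated by pin tool with a single drug, or with a fixed anchor-drug dose together with five library-drug doses (not always all listed) in √10 steps. After 5 days, a combined fix-and-stain solution (final 0.05% Triton X-100, 1% formaldehyde, 1 ug/ml Hoechst) was added. Nuclei counted on 4× images gave relative viability as treated counts over vehicle counts, reported as the median of duplicate plates.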

[2] = tested on: NCI-H2023
How it was run: as §1

[3] = tested on: HCC-15
How it was run: as §1

[4] = tested on: NCI-H1915
How it was run: as §1

[5] = tested on: NCI-H2009
How it was run: as §1

[6] = tested on: BEN
How it was run: as §1

[7] = tested on: ChaGo-K-1
How it was run: as §1

[8] = tested on: HCC-827
How it was run: as §1

[9] = tested on: HCC-44
How it was run: as §1

[10] = tested on: LCLC-97TM1
How it was run: as §1

[11] = tested on: NCI-H596
How it was run: as §1

[12] = tested on: NCI-H1395
How it was run: as §1

[13] = tested on: ABC-1
How it was run: as §1

[14] = tested on: NCI-H1944
How it was run: as §1

[15] = tested on: LU99A
How it was run: as §1

[16] = tested on: HOP-62
How it was run: as §1

[17] = tested on: COR-L 105
How it was run: as §1

[18] = tested on: LC-2-ad
How it was run: as §1

[19] = tested on: LOU-NH91
How it was run: as §1

[20] = tested on: CAL-12T
How it was run: as §1

[21] = tested on: HCC-366
How it was run: as §1

[22] = tested on: NCI-H661
How it was run: as §1

[23] = tested on: NCI-H650
How it was run: as §1

[24] = tested on: HARA
How it was run: as §1

[25] = tested on: NCI-H522
How it was run: as §1

Nc1cccc2c1CN(C1CCC(=O)NC1=O)C2=O (configuration not stated) [Lenalidomide] + CS(=O)(=O)N1CCN(Cc2cc3nc(-c4cccc5[nH]ncc45)nc(N4CCOCC4)c3s2)CC1 [Pictilisib] (partner 1 µM)
relative viability ([1]; first compound 0.253 µM): 0.562 | relative viability ([1]; first compound 0.8 µM): 0.441 | relative viability ([1]; first compound 2.53 µM): 0.731 | relative viability ([1]; first compound 8 µM): 0.637 | relative viability ([2]; first compound 0.253 µM): 0.254 | relative viability ([2]; first compound 0.8 µM): 0.176 | relative viability ([2]; first compound 2.53 µM): 0.268 | relative viability ([2]; first compound 8 µM): 0.187 | relative viability ([3]; first compound 0.253 µM): 0.744 | relative viability ([3]; first compound 2.53 µM): 0.768 | relative viability ([3]; first compound 8 µM): 0.668 | relative viability ([4]; first compound 0.253 µM): 0.9 | relative viability ([4]; first compound 0.8 µM): 0.793 | relative viability ([4]; first compound 2.53 µM): 1 | relative viability ([4]; first compound 8 µM): 0.857 | relative viability ([5]; first compound 0.253 µM): 0.852 | relative viability ([5]; first compound 0.8 µM): 1.01 | relative viability ([5]; first compound 2.53 µM): 0.941 | relative viability ([5]; first compound 8 µM): 0.768 | relative viability ([6]; first compound 0.253 µM): 0.69 | relative viability ([6]; first compound 0.8 µM): 0.504 | relative viability ([6]; first compound 2.53 µM): 0.644 | relative viability ([6]; first compound 8 µM): 0.436 | relative viability ([7]; first compound 0.253 µM): 0.791 | relative viability ([7]; first compound 2.53 µM): 0.739 | relative viability ([7]; first compound 8 µM): 0.625 | relative viability ([8]; first compound 0.253 µM): 1.03 | relative viability ([8]; first compound 0.8 µM): 1.11 | relative viability ([8]; first compound 2.53 µM): 0.925 | relative viability ([8]; first compound 8 µM): 0.834 | relative viability ([9]; first compound 0.253 µM): 0.525 | relative viability ([9]; first compound 0.8 µM): 0.409 | relative viability ([9]; first compound 2.53 µM): 0.58 | relative viability ([9]; first compound 8 µM): 0.433 | relative viability ([10]; first compound 0.8 µM): 0.182 | relative viability ([10]; first compound 2.53 µM): 0.261 | relative viability ([10]; first compound 8 µM): 0.165 | relative viability ([11]; first compound 0.253 µM): 0.382 | relative viability ([11]; first compound 0.8 µM): 0.359 | relative viability ([11]; first compound 2.53 µM): 0.381 | relative viability ([11]; first compound 8 µM): 0.365 | relative viability ([12]; first compound 0.253 µM): 0.682 | relative viability ([12]; first compound 2.53 µM): 0.647 | relative viability ([12]; first compound 8 µM): 0.569 | relative viability ([13]; first compound 0.253 µM): 0.724 | relative viability ([13]; first compound 0.8 µM): 0.626 | relative viability ([13]; first compound 2.53 µM): 0.719 | relative viability ([13]; first compound 8 µM): 0.629 | relative viability ([14]; first compound 0.253 µM): 0.382 | relative viability ([14]; first compound 0.8 µM): 0.309 | relative viability ([14]; first compound 2.53 µM): 0.319 | relative viability ([14]; first compound 8 µM): 0.287 | relative viability ([15]; first compound 0.253 µM): 0.31 | relative viability ([15]; first compound 0.8 µM): 0.324 | relative viability ([15]; first compound 2.53 µM): 0.371 | relative viability ([15]; first compound 8 µM): 0.238 | relative viability ([16]; first compound 0.253 µM): 0.627 | relative viability ([16]; first compound 0.8 µM): 0.834 | relative viability ([16]; first compound 2.53 µM): 0.922 | relative viability ([16]; first compound 8 µM): 0.535 | relative viability ([17]; first compound 0.253 µM): 0.278 | relative viability ([17]; first compound 0.8 µM): 0.398 | relative viability ([17]; first compound 2.53 µM): 0.554 | relative viability ([17]; first compound 8 µM): 0.363 | relative viability ([18]; first compound 0.253 µM): 0.434 | relative viability ([18]; first compound 0.8 µM): 0.487 | relative viability ([18]; first compound 2.53 µM): 0.467 | relative viability ([18]; first compound 8 µM): 0.538 | relative viability ([19]; first compound 0.253 µM): 0.534 | relative viability ([19]; first compound 0.8 µM): 0.451 | relative viability ([19]; first compound 2.53 µM): 0.445 | relative viability ([19]; first compound 8 µM): 0.502 | relative viability ([20]; first compound 0.253 µM): 0.406 | relative viability ([20]; first compound 2.53 µM): 0.561 | relative viability ([20]; first compound 8 µM): 0.358 | relative viability ([21]; first compound 0.253 µM): 0.131 | relative viability ([21]; first compound 0.8 µM): 0.108 | relative viability ([21]; first compound 2.53 µM): 0.172 | relative viability ([21]; first compound 8 µM): 0.157 | relative viability ([22]; first compound 0.253 µM): 0.59 | relative viability ([22]; first compound 0.8 µM): 0.369 | relative viability ([22]; first compound 2.53 µM): 0.44 | relative viability ([22]; first compound 8 µM): 0.329 | relative viability ([23]; first compound 0.253 µM): 0.822 | relative viability ([23]; first compound 2.53 µM): 0.911 | relative viability ([23]; first compound 8 µM): 0.739 | relative viability ([24]; first compound 0.253 µM): 0.367 | relative viability ([24]; first compound 0.8 µM): 0.327 | relative viability ([24]; first compound 2.53 µM): 0.438 | relative viability ([24]; first compound 8 µM): 0.206

Nc1cccc2c1CN(C1CCC(=O)NC1=O)C2=O (configuration not stated) [Lenalidomide] + NC(=O)Nc1cc(-c2cccc(F)c2)sc1C(=O)N[C@H]1CCCNC1 [AZD7762] (partner 0.2 µM)
relative viability ([3]; first compound 0.253 µM): 1.11 | relative viability ([3]; first compound 0.8 µM): 1.22 | relative viability ([3]; first compound 2.53 µM): 1.35 | relative viability ([3]; first compound 8 µM): 1.36 | relative viability ([4]; first compound 0.253 µM): 0.678 | relative viability ([4]; first compound 0.8 µM): 0.699 | relative viability ([4]; first compound 2.53 µM): 0.739 | relative viability ([4]; first compound 8 µM): 0.682 | relative viability ([6]; first compound 0.253 µM): 0.783 | relative viability ([6]; first compound 0.8 µM): 0.503 | relative viability ([6]; first compound 2.53 µM): 0.701 | relative viability ([6]; first compound 8 µM): 0.563 | relative viability ([7]; first compound 0.253 µM): 0.916 | relative viability ([7]; first compound 0.8 µM): 0.853 | relative viability ([7]; first compound 2.53 µM): 1.02 | relative viability ([7]; first compound 8 µM): 0.893 | relative viability ([8]; first compound 0.253 µM): 0.264 | relative viability ([8]; first compound 0.8 µM): 0.325 | relative viability ([8]; first compound 2.53 µM): 0.255 | relative viability ([8]; first compound 8 µM): 0.206 | relative viability ([9]; first compound 0.253 µM): 0.97 | relative viability ([9]; first compound 0.8 µM): 0.836 | relative viability ([9]; first compound 2.53 µM): 0.999 | relative viability ([9]; first compound 8 µM): 1.14 | relative viability ([10]; first compound 0.253 µM): 0.304 | relative viability ([10]; first compound 0.8 µM): 0.114 | relative viability ([10]; first compound 2.53 µM): 0.364 | relative viability ([10]; first compound 8 µM): 0.222 | relative viability ([11]; first compound 0.253 µM): 1.13 | relative viability ([11]; first compound 0.8 µM): 1.09 | relative viability ([11]; first compound 2.53 µM): 1.1 | relative viability ([11]; first compound 8 µM): 1 | relative viability ([12]; first compound 0.253 µM): 0.405 | relative viability ([12]; first compound 2.53 µM): 0.387 | relative viability ([12]; first compound 8 µM): 0.376 | relative viability ([13]; first compound 0.253 µM): 0.791 | relative viability ([13]; first compound 0.8 µM): 0.59 | relative viability ([13]; first compound 2.53 µM): 0.929 | relative viability ([13]; first compound 8 µM): 0.856 | relative viability ([14]; first compound 0.253 µM): 0.545 | relative viability ([14]; first compound 2.53 µM): 0.709 | relative viability ([14]; first compound 8 µM): 0.386 | relative viability ([25]; first compound 0.253 µM): 0.858 | relative viability ([25]; first compound 0.8 µM): 0.882 | relative viability ([25]; first compound 2.53 µM): 0.758 | relative viability ([25]; first compound 8 µM): 0.758 | relative viability ([15]; first compound 0.253 µM): 0.311 | relative viability ([15]; first compound 0.8 µM): 0.341 | relative viability ([15]; first compound 2.53 µM): 0.397 | relative viability ([15]; first compound 8 µM): 0.257 | relative viability ([16]; first compound 0.253 µM): 0.552 | relative viability ([16]; first compound 0.8 µM): 0.838 | relative viability ([16]; first compound 2.53 µM): 0.711 | relative viability ([16]; first compound 8 µM): 0.533 | relative viability ([18]; first compound 0.253 µM): 0.902 | relative viability ([18]; first compound 0.8 µM): 0.928 | relative viability ([18]; first compound 2.53 µM): 0.865 | relative viability ([18]; first compound 8 µM): 0.94 | relative viability ([19]; first compound 0.253 µM): 0.781 | relative viability ([19]; first compound 0.8 µM): 0.702 | relative viability ([19]; first compound 2.53 µM): 0.766 | relative viability ([19]; first compound 8 µM): 0.647 | relative viability ([20]; first compound 0.253 µM): 0.668 | relative viability ([20]; first compound 0.8 µM): 0.564 | relative viability ([20]; first compound 2.53 µM): 0.737 | relative viability ([20]; first compound 8 µM): 0.666 | relative viability ([21]; first compound 0.253 µM): 0.258 | relative viability ([21]; first compound 0.8 µM): 0.268 | relative viability ([21]; first compound 2.53 µM): 0.371 | relative viability ([21]; first compound 8 µM): 0.335 | relative viability ([23]; first compound 0.253 µM): 1.06 | relative viability ([23]; first compound 0.8 µM): 0.927 | relative viability ([23]; first compound 2.53 µM): 1.06 | relative viability ([23]; first compound 8 µM): 0.89 | relative viability ([24]; first compound 0.253 µM): 0.173 | relative viability ([24]; first compound 2.53 µM): 0.296 | relative viability ([24]; first compound 8 µM): 0.434
